Among the data in patent US9884843B2 (Peloton Therapeutics, Inc., priority 2013, dated 2018) are IC50 and EC50 values, retold here.

For the first assay, the target named is HIF-2α HIS TAG-PASB Domain (Homo sapiens, UniProt Q99814). In words: biochemical. In kind it is binding.
Sequence of HIF-2α HIS TAG-PASB Domain (Q99814 whole entry, looked up, the tested form may be a part): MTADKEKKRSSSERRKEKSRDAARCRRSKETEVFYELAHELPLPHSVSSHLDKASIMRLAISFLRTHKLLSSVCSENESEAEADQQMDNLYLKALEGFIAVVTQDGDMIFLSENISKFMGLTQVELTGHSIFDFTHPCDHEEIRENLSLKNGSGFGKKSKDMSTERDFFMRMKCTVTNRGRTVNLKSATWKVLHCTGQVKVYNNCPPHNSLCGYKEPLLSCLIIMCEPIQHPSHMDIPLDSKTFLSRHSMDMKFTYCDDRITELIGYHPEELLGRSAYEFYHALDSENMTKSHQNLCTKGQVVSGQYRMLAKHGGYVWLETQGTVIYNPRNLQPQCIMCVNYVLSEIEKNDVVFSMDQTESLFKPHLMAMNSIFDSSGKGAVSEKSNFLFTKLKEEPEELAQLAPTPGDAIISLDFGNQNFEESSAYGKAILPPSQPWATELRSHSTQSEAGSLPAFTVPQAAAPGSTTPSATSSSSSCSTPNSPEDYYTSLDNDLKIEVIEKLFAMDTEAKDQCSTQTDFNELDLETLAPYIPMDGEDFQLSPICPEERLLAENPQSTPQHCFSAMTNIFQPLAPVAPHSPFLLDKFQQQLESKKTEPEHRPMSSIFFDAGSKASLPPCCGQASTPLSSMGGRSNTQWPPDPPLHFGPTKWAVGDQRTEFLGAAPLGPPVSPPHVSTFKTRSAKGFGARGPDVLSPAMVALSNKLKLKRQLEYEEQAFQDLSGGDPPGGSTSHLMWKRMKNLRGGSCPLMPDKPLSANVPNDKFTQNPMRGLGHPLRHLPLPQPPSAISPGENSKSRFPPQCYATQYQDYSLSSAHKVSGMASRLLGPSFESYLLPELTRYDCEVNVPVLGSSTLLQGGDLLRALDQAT
Settings: not given
An excerpt:
The term “scintillation proximity assay” (SPA) refers to a homogenous assay in which light is emitted when a radiolabeled ligand is brought into close proximity to a radiosensitive bead. The assay typically contains a target protein that contains a tag (e.g., His Tag, Glutathione S-transferase Tag). The tag on the protein is used to bind the target protein to the scintillation bead. Radiolabeled ligand (e.g., labeled with tritium) that binds to the protein is now in close proximity to the bead, and when the raidolabel (e.g., tritium) decays, the high energy particle hits the bead resulting in the emission of light that is detected by a detector, such as photomultiplier tube or CCD camera. When unlabeled ligands or compounds that bind to the protein are used in the assay, they displace the radiolabeled ligand, resulting in loss of signal.
The total assay volume was about 100 μL in the following configuration: 2-μL compound in DMSO, 88 μL buffer with protein and probe and 10 μL of SPA beads. […] To each compound, 88 μL of the buffer solution was then added. […] The percent inhibition was determined and IC50 values were calculated using the Dotmatics system based on the following equation: % inhibition=[(high control−sample)/(high control−low control)]×100.
Broadly, the IC50 is the concentration at which inhibition is half-maximal. With `COc1cc(F)cc(Oc2ccc3c(c2C#N)[C@@H](O)C(F)(F)S3(=O)=O)c1` [Compound 81, (R)-2,2-difluoro-5-(3-fluoro-5-methoxyphenoxy)-3-hydroxy-2,3-dihydrobenzo[b]thiophene-4-carbonitrile 1,1-dioxide], the IC50 is 0.067 µM.

Still in this assay, the particulars now being: displacement of Compound 120 probe; mean; read-out: Mean SPA IC50.
Take `O=S1(=O)c2ccc(Oc3cncc(Cl)c3)c(Cl)c2[C@@H](O)C1(F)F` [Compound 86, (R)-4-Chloro-5-((5-chloropyridin-3-yl)oxy)-2,2-difluoro-3-hydroxy-2,3-dihydrobenzo[b]thiophene 1,1-dioxide]: the IC50 amounted to 0.38 µM.

Regarding `NC1c2c(ccc(Oc3cc(F)cc(F)c3)c2C(F)F)S(=O)(=O)C1F` (stereo not shown) [Compound 20, 3-amino-4-(difluoromethyl)-5-(3,5-difluorophenoxy)-2-fluoro-2,3-dihydrobenzo[b]thiophene 1,1-dioxide], the IC50 worked out at 1.54 µM.

Take `O=S1(=O)c2ccc(Oc3cncc(Cl)c3)c(Br)c2[C@@H](O)C1(F)F` [Compound 75, (R)-4-bromo-5-((5-chloropyridin-3-yl)oxy)-2,2-difluoro-3-hydroxy-2,3-dihydrobenzo[b]thiophene 1,1-dioxide]: the IC50 stood at 0.12 µM.

For the molecule `O=S1(=O)CCc2c1ccc(Oc1cc(F)cc(Cl)c1)c2Br` [Compound 4, 4-Bromo-5-(3-chloro-5-fluorophenoxy)-2,3-dihydrobenzo[b]thiophene 1,1-dioxide], the IC50 was 4.41 µM.

Still in this assay, the particulars now being: unnumbered compounds listed by structure and name; read-out: IC50 value in SPA.
Regarding `N#Cc1cc(F)cc(Oc2ccc3c(c2C(F)F)C(NCC(F)F)CS3(=O)=O)c1` (stereo not shown) [3-[[3-(2,2-difluoroethylamino)-4-(difluoromethyl)-1,1-dioxo-2,3-dihydrobenzothiophen-5-yl]oxy]-5-fluoro-benzonitrile], the IC50 is greater than 100 µM.

Consider `N#Cc1cc(F)cc(Oc2ccc3c(c2C#CCO)C(O)C(F)(F)S3(=O)=O)c1` (stereo not shown) [3-[[2,2-difluoro-3-hydroxy-4-(3-hydroxyprop-1-ynyl)-1,1-dioxo-3H-benzothiophen-5-yl]oxy]-5-fluoro-benzonitrile], for which the IC50 is greater than 100 µM.

In the case of `N#Cc1c(Oc2cc(F)cc(F)c2)ccc2c1C(O)CS2(=N)=O` (stereo not shown) [5-(3,5-difluorophenoxy)-3-hydroxy-1-imino-2,3-dihydro-1H-1λ^4-benzo[b]thiophene-4-carbonitrile 1-oxide], the IC50 was greater than 100 µM.

In the case of `N=S1(=O)CC(=O)c2c1ccc(Oc1cc(F)cc(F)c1)c2Br` (stereo not shown) [4-bromo-5-(3,5-difluorophenoxy)-1-imino-1-oxo-benzothiophen-3-one], the IC50 was greater than 100 µM.

On to `N#CN=S1(=O)C[C@H](O)c2c1ccc(Oc1cc(F)cc(F)c1)c2Cl` (stereo partly drawn) [[(3R)-4-chloro-5-(3,5-difluorophenoxy)-3-hydroxy-1-oxo-2,3-dihydrobenzothiophen-1-ylidene]cyanamide], for which the IC50 was in the range of 25 to 100 µM.

For the molecule `N#Cc1cncc(Oc2ccc3c(c2C#N)[C@@H](O)CS3(=O)=O)c1` [5-[[(3R)-4-cyano-3-hydroxy-1,1-dioxo-2,3-dihydrobenzothiophen-5-yl]oxy]pyridine-3-carbonitrile], the 50% inhibitory concentration (IC50) fell in the range of 25 to 100 µM.

As to `O=S1(=O)c2ccc(Oc3cc(F)cc(Cl)c3)c(Br)c2C(O)C12CC2` (stereo not shown) [4-bromo-5-(3-chloro-5-fluoro-phenoxy)-1,1-dioxo-spiro[3H-benzothiophene-2,1′-cyclopropane]-3-ol], the IC50 was 25 to 100 µM.

Regarding `N#Cc1cc(F)cc(Oc2ccc3c(c2C(F)F)C(NCCC(=O)O)C(F)(F)S3(=O)=O)c1` (stereo not shown) [3-[[5-(3-cyano-5-fluoro-phenoxy)-4-(difluoromethyl)-2,2-difluoro-1,1-dioxo-3H-benzothiophen-3-yl]amino]propanoic acid], the half-inhibitory concentration (IC50) is greater than 100 µM.

Regarding `N#CCNC1CS(=O)(=O)c2ccc(Oc3cc(F)cc(C#N)c3)c(C(F)F)c21` (stereo not shown) [3-[[3-(cyanomethylamino)-4-(difluoromethyl)-1,1-dioxo-2,3-dihydrobenzothiophen-5-yl]oxy]-5-fluoro-benzonitrile], the IC50 was greater than 100 µM.

Turning to `N#Cc1c(Oc2cncc(F)c2)ccc2c1[C@@H](O)CS2(=O)=O` [(3R)-5-[(5-fluoro-3-pyridyl)oxy]-3-hydroxy-1,1-dioxo-2,3-dihydrobenzothiophene-4-carbonitrile], the IC50 is 25 to 100 µM.

Take `O=C1CS(=O)(=O)c2ccc(Oc3cc(F)cc(F)c3)c(Br)c21` [4-bromo-5-(3,5-difluorophenoxy)-1,1-dioxo-benzothiophen-3-one]: the IC50 is greater than 100 µM.

Regarding `N#Cc1cc(F)cc(Oc2ccc3c(c2CF)C(O)CS3(=O)=O)c1` (stereo not shown) [3-fluoro-5-[[4-(fluoromethyl)-3-hydroxy-1,1-dioxo-2,3-dihydrobenzothiophen-5-yl]oxy]benzonitrile], the IC50 lay within 25 to 100 µM.

A further assay relates to 786-O-Hif-Luc cells. Briefly: Luciferase Assay (HIF responsive element reporter). The following applies: 786-O-Hif-Luc cells, about 24 hours; read-out: Mean Luciferease EC50. In kind it is cell-based. The protocol:
A pool of infected cells were then selected against 2 μg/mL of puromycin (P8833, Sigma) for 10 days followed by limited dilution to select single clones.
Each concentration was tested in triplicate. After about 24 hours, luciferase activity was determined using ONE-Glo Luciferase Assay Reagent (E6110, Promega) following the manufacturer's recommended procedure. EC50 were calculated by using Dotmatics software.
As usually defined, the EC50 is the concentration that produces a half-maximal response. `[2H]C1(O)c2c(ccc(Oc3cc(F)cc(C#N)c3)c2C(F)F)S(=O)(=O)C1(F)F` (stereo not shown) [Compound 40, 3-((4-(Difluoromethyl)-2,2-difluoro-3-hydroxy-1,1-dioxido-2,3-dihydrobenzo[b]thiophen-5-yl-3-d)oxy)-5-fluorobenzonitrile]: the concentration giving a half-maximal response (EC50) was 12 nM.

Turning to `O=S1(=O)c2ccc(Oc3cc(F)cc(Cl)c3)c(C(F)F)c2C(O)C1(F)F` (stereo not shown) [Compound 18, 5-(3-Chloro-5-fluorophenoxy)-4-(difluoromethyl)-2,2-difluoro-3-hydroxy-2,3-dihydrobenzo[b]thiophene 1,1-dioxide], the half-maximal effective concentration (EC50) was 17 nM.

Turning to `N#Cc1cc(F)cc(Oc2ccc3c(c2C(F)F)C(O)C(F)(F)S3(=O)=O)c1` (stereo not shown) [Compound 29, 3-((4-(Difluoromethyl)-2,2-difluoro-3-hydroxy-1,1-dioxido-2,3-dihydrobenzo[b]thiophen-5-yl)oxy)-5-fluorobenzonitrile], the concentration for a half-maximal effect (EC50) was 4 nM.

On to `N#Cc1cc(F)cc(Oc2ccc3c(c2C(F)F)[C@@H](N)C(F)(F)S3(=O)=O)c1` [Compound 41, (R)-3-((3-Amino-4-(difluoromethyl)-2,2-difluoro-1,1-dioxido-2,3-dihydrobenzo[b]thiophen-5-yl)oxy)-5-fluorobenzonitrile], for which the EC50 was 140 nM.

Still in this assay, the particulars now being: 24 h, 786-O-Hif-Luc cells, about 24 hours; read-out: Mean Luciferease EC50.
In the case of `N#Cc1c(Oc2cc(F)cc(F)c2)ccc2c1C(O)C(F)S2(=O)=O` (stereo not shown) [Compound 44, 5-(3,5-Difluorophenoxy)-2-fluoro-3-hydroxy-2,3-dihydrobenzo[b]thiophene-4-carbonitrile 1,1-dioxide], the EC50 was determined as 790 nM.

Turning to `N#CC1(COc2ccc3c(c2C(F)F)C(O)C(F)(F)S3(=O)=O)CC1` (stereo not shown) [Compound 109, 1-(((4-(difluoromethyl)-2,2-difluoro-3-hydroxy-1,1-dioxido-2,3-dihydrobenzo[b]thiophen-5-yl)oxy)methyl)cyclopropane-1-carbonitrile], the EC50 was 6700 nM.

In the case of `CC(C)Oc1ccc2c(c1C#N)C(C)(O)C(F)(F)S2(=O)=O` (stereo not shown) [Compound 110, 2,2-Difluoro-3-hydroxy-5-isopropoxy-3-methyl-2,3-dihydrobenzo[b]thiophene-4-carbonitrile 1,1-dioxide], the EC50 was found to be 5400 nM.

With `O=S1(=O)CC(O)c2c1ccc(Oc1cc(F)cc(F)c1)c2C(F)F` (stereo not shown) [Compound 24, 4-(Difluoromethyl)-5-(3,5-difluorophenoxy)-3-hydroxy-2,3-dihydrobenzo[b]thiophene 1,1-dioxide], the EC50 was found to be 720 nM.

For the molecule `O=S1(=O)CC(O)c2c1ccc(Oc1cc(F)cc(Cl)c1)c2C(F)F` (stereo not shown) [Compound 15, 5-(3-Chloro-5-fluorophenoxy)-4-(difluoromethyl)-3-hydroxy-2,3-dihydrobenzo[b]thiophene 1,1-dioxide], the EC50 worked out at 730 nM.

`N#Cc1cccc(Oc2ccc3c(c2Br)[C@@H](O)C(F)(F)S3(=O)=O)c1` [Compound 84, (R)-3-((4-bromo-2,2-difluoro-3-hydroxy-1,1-dioxido-2,3-dihydrobenzo[b]thiophen-5-yl)oxy)benzonitrile]: the EC50 worked out at 33 nM.

`O=S1(=O)c2ccc(Oc3cccc4cn[nH]c34)c(C(F)F)c2C(O)C1(F)F` (stereo not shown) [Compound 95, 5-((1H-Indazol-7-yl)oxy)-4-(difluoromethyl)-2,2-difluoro-3-hydroxy-2,3-dihydrobenzo[b]thiophene 1,1-dioxide]: the EC50 stood at 6890 nM.

Turning to `COc1cc(F)cc(Oc2ccc3c(c2Br)[C@@H](O)C(F)(F)S3(=O)=O)c1` [Compound 80, (R)-4-Bromo-2,2-difluoro-5-(3-fluoro-5-methoxyphenoxy)-3-hydroxy-2,3-dihydrobenzo[b]thiophene 1,1-dioxide], the EC50 turned out to be 410 nM.

Still in this assay, the particulars now being: 24 h, read-out: Mean Luciferease EC50.
As for `N#Cc1cc(F)cc(Oc2ccc3c(c2C(F)F)[C@H](O)C(F)(F)S3(=O)=O)c1` [Compound 34, (S)-3-((4-(Difluoromethyl)-2,2-difluoro-3-hydroxy-1,1-dioxido-2,3-dihydrobenzo[b]thiophen-5-yl)oxy)-5-fluorobenzonitrile], the EC50 turned out to be 20 nM.

In the case of `O=S1(=O)CC(O)c2c1ccc(Oc1cc(F)cc(Cl)c1)c2Br` (stereo not shown) [Compound 6, 4-Bromo-5-(3-chloro-5-fluorophenoxy)-3-hydroxy-2,3-dihydrobenzo[b]thiophene 1,1-dioxide], the concentration for a half-maximal effect (EC50) was 4850 nM.
